Several values for one entry are separate records, joined by “and”; a condition that tells them apart may be missing. Equal entries are not always repeated.
How the values were obtained:
[1] = tested on: porcine IVD; assay: T2-weighted MRI and photographs of porcine IVD after LA (series 3), disc height and width; type: in vivo; conditions: pig
Experimental: Since effects of LA on the NP in the subsequent clinical study was planned to be assessed using MRI, the third series focused on the effects of LA (0.2 mL, 60 mg/mL) on sclerotization as measured by T2-weighted MRI. In addition, effects of LA on the expression of collagen I and II were studied by immunohistochemistry (IHC). […] MR images were obtained using a 7T small animal MRI system (Bruker Biospec). A single 50 mm volume coil array was used (Tx/Rx). The dissected spines were stripped of the attached muscles, the spinous processes, transverse processes, and posterior aspects of the facet joints to allow them to fit in the MRI system. T2-weighted (TR: 2500-2834 ms, TE: 33-35.84 ms), 2D TurboRARE transversal and sagittal sequences were used. The TR and TE could not be maintained the same for all sequences due to required adjustments in field of view the different specimens, leading to an increased pixel matrix which affected the TR and TE. For the transverse sequences, a 500 μm slice thickness with 750 μm interslice distance and an in-plane resolution of 166×166 μm was used. For the sagittal sequences, a 750 μm slice thickness with 2000 μm interslice distance and an in-place resolution of 166×166 μm was used. […] Images were analyzed using Sante DICOM Viewer (version 8.1.5, Santesoft, Athens, Greece). The treated IVDs in all animals were assessed, and the IVD one level above the treated IVD was scanned as control. The size of the NP was quantified using both MR images and photographs of the IVDs (see FIG. 6). The results from the macroscopic and MR analyses were then correlated. […] The relative disc height was expressed as a ratio of height of treated IVD/height of untreated (control) IVD. Analogously, the relative disc width was expressed as a ratio of width of treated IVD/width of untreated (control) IVD.

[2] = tested on: patients with chronic discogenic low back pain; assay: Randomized placebo-controlled single ascending dose study, safety and tolerability of intradiscal injection; type: in vivo, human
From the text: The study was a randomized, double-blinded, placebo-controlled, single ascending dose study with the primary objective to evaluate safety and tolerability following intradiscal injection of LA in Omnipaque or placebo (Omnipaque) in 15 patients with chronic discogenic low back pain. The secondary objective was to assess effects on the NP and disc height using T2-weighted MRI. […] Prior to dose escalation, the safety review committee assessed all safety data up to Visit 3 (1 week after treatment). In case of any safety or tolerability concerns, dosing could be discontinued, or the planned dose could be lowered. The test product in this study was containing the active ingredient (S)-LA, which was provided to the site as a sterile solution in a syringe for single use. The LA doses administered were 45, 90 and 180 mg in a volume of 1.5 mL, corresponding to LA concentrations of 30, 60 and 120 mg/mL. The formulation for administration was prepared extempore and contained the contrast agent iohexol (Omnipaque™) and water for injection. The final concentration of iohexol in the injected solution was 388 mg/mL. Small amounts of tromethamine, Na2Ca edetate and HCl were also present. The solution was clear and colourless to slightly coloured. At the treatment day, patients received premedication with a sedative or anxiolytic and antibiotics, given as an i.v. infusion approximately 15 min before the intradiscal injection. The patient was placed in the right lateral decubitus position and injection was done using the two-needle technique under fluoroscopy guidance. Once correct intradiscal needle placement had been confirmed, a small volume (approximately 0.5 mL) of the formulation was first injected slowly (during half a minute) to verify that the distribution of the injectate was confined to the disc and that there was no leakage. If no leakage had occurred within half a minute, this procedure was repeated twice until the entire volume (1.5 mL) had been injected. If there was any leakage from the disc during injection, either after injection of a small volume or the entire volume (1.5 mL), the injection was interrupted. […] All patients stayed overnight at the clinic after the injection, for observation and safety assessments. After leaving the clinic, patients were to be treated with analgesics and/or other measures according to standard clinical practice. They were also given advice on restricted physical activity during the first week. Physical examination, blood pressure, heart rate, electrocardiogram (ECG), clinical chemistry and hematology were assessed using routine clinical methods. Pain during and 15 min after injection was measured using a VAS scale (0-100 mm) and the patient reported whether or not the pain reproduced the pain normally experienced in terms of location and type of pain. The distribution of Omnipaque within the IVD was documented according to the Dallas discogram scale. Local site reactions to the injection were noted, and AEs were graded for seriousness, intensity, and causality to the treatment. SAEs were defined according to the International Conference of Harmonisation guideline E2A.

[3] = individual animals 1-5, LA 0.2 mL 60 mg/mL
[4] = mean of 5 animals, LA 0.2 mL 60 mg/mL

With `CC(O)C(=O)O` (stereo not shown) [LA, lactic acid] the “Height of the treated IVD on MR image (FIG. 12)” value ([1]; 60 mg/ml LA, 30 days prior to the image, vs untreated control IVD) was “significant reduction in height”, the “T2-weighted MRI intensity of the sclerotized NP” value ([1]; LA 60 mg/mL) was “much lower” and the “Relative disc height (treated IVD/untreated control IVD)” value [1, 3] was 0.55 and 0.2 and 0.33 and 0.7 and 0.36. For the same compound, the “Relative disc width (treated IVD/untreated control IVD)” value [1, 3] was 1 and 1.01 and 0.99 (2×) and 1.04, the “Relative disc height, mean value” [1, 4] was 0.43 and the “Relative disc width, mean value” [1, 4] was 1.01. For the same compound, the “Adverse events by causality, Possible, m number of events” value ([2]; LA 30 mg/ml (n = 3)) was 0, the “Adverse events by causality, Possible, n (%) number of patients” value ([2]; LA 30 mg/ml (n = 3)) was 0 and the “Adverse events by causality, Probable, m number of events” value ([2]; LA 30 mg/ml (n = 3)) was 1. For the same compound, the “Adverse events by causality, Probable, n (%) number of patients” value ([2]; LA 30 mg/ml (n = 3)) was 1 (33%), the “Adverse events by causality, Unlikely, m number of events” value ([2]; LA 30 mg/ml (n = 3)) was 3 and the “Adverse events by causality, Unlikely, n (%) number of patients” value ([2]; LA 30 mg/ml (n = 3)) was 2 (67%). For the same compound, the “Adverse events by severity, Mild, m number of events” value ([2]; LA 30 mg/ml (n = 3)) was 2, the “Adverse events by severity, Mild, n (%) number of patients” value ([2]; LA 30 mg/ml (n = 3)) was 1 (33%) and the “Adverse events by severity, Moderate, m number of events” value ([2]; LA 30 mg/ml (n = 3)) was 2. The “Adverse events by severity, Moderate, n (%) number of patients” value ([2]; LA 30 mg/ml (n = 3)) was 1 (33%), the “Adverse events by severity, Severe, m number of events” value ([2]; LA 30 mg/ml (n = 3)) was 0 and the “Adverse events by severity, Severe, n (%) number of patients” value ([2]; LA 30 mg/ml (n = 3)) was 0. The “Any adverse event, m number of events” value ([2]; LA 30 mg/ml (n = 3)) was 4, the “Any adverse event, n (%) number of patients” value ([2]; LA 30 mg/ml (n = 3)) was 2 (67%) and the “Any serious adverse event, m number of events” value ([2]; LA 30 mg/ml (n = 3)) was 0. For the same compound, the “Any serious adverse event, n (%) number of patients” value ([2]; LA 30 mg/ml (n = 3)) was 0, the “Adverse events by causality, Possible, m number of events” value ([2]; LA 60 mg/ml (n = 3)) was 0 and the “Adverse events by causality, Possible, n (%) number of patients” value ([2]; LA 60 mg/ml (n = 3)) was 0. For the same compound, the “Adverse events by causality, Probable, m number of events” value ([2]; LA 60 mg/ml (n = 3)) was 3, the “Adverse events by causality, Probable, n (%) number of patients” value ([2]; LA 60 mg/ml (n = 3)) was 3 (100%) and the “Adverse events by causality, Unlikely, m number of events” value ([2]; LA 60 mg/ml (n = 3)) was 0. The “Adverse events by causality, Unlikely, n (%) number of patients” value ([2]; LA 60 mg/ml (n = 3)) was 0, the “Adverse events by severity, Mild, m number of events” value ([2]; LA 60 mg/ml (n = 3)) was 1 and the “Adverse events by severity, Mild, n (%) number of patients” value ([2]; LA 60 mg/ml (n = 3)) was 1 (33%). The “Adverse events by severity, Moderate, m number of events” value ([2]; LA 60 mg/ml (n = 3)) was 2, the “Adverse events by severity, Moderate, n (%) number of patients” value ([2]; LA 60 mg/ml (n = 3)) was 2 (67%) and the “Adverse events by severity, Severe, m number of events” value ([2]; LA 60 mg/ml (n = 3)) was 0. For the same compound, the “Adverse events by severity, Severe, n (%) number of patients” value ([2]; LA 60 mg/ml (n = 3)) was 0, the “Any adverse event, m number of events” value ([2]; LA 60 mg/ml (n = 3)) was 3 and the “Any adverse event, n (%) number of patients” value ([2]; LA 60 mg/ml (n = 3)) was 3 (100%). For the same compound, the “Any serious adverse event, m number of events” value ([2]; LA 60 mg/ml (n = 3)) was 0, the “Any serious adverse event, n (%) number of patients” value ([2]; LA 60 mg/ml (n = 3)) was 0 and the “Adverse events by causality, Possible, m number of events” value ([2]; LA 120 mg/ml (n = 3)) was 1. The “Adverse events by causality, Possible, n (%) number of patients” value ([2]; LA 120 mg/ml (n = 3)) was 1 (33%), the “Adverse events by causality, Probable, m number of events” value ([2]; LA 120 mg/ml (n = 3)) was 4 and the “Adverse events by causality, Probable, n (%) number of patients” value ([2]; LA 120 mg/ml (n = 3)) was 2 (67%). For the same compound, the “Adverse events by causality, Unlikely, m number of events” value ([2]; LA 120 mg/ml (n = 3)) was 3, the “Adverse events by causality, Unlikely, n (%) number of patients” value ([2]; LA 120 mg/ml (n = 3)) was 2 (67%) and the “Adverse events by severity, Mild, m number of events” value ([2]; LA 120 mg/ml (n = 3)) was 6. For the same compound, the “Adverse events by severity, Mild, n (%) number of patients” value ([2]; LA 120 mg/ml (n = 3)) was 3 (100%), the “Adverse events by severity, Moderate, m number of events” value ([2]; LA 120 mg/ml (n = 3)) was 2 and the “Adverse events by severity, Moderate, n (%) number of patients” value ([2]; LA 120 mg/ml (n = 3)) was 1 (33%). For the same compound, the “Adverse events by severity, Severe, m number of events” value ([2]; LA 120 mg/ml (n = 3)) was 0, the “Adverse events by severity, Severe, n (%) number of patients” value ([2]; LA 120 mg/ml (n = 3)) was 0 and the “Any adverse event, m number of events” value ([2]; LA 120 mg/ml (n = 3)) was 8. The “Any adverse event, n (%) number of patients” value ([2]; LA 120 mg/ml (n = 3)) was 3 (100%), the “Any serious adverse event, m number of events” value ([2]; LA 120 mg/ml (n = 3)) was 0 and the “Any serious adverse event, n (%) number of patients” value ([2]; LA 120 mg/ml (n = 3)) was 0. For the same compound, the “Safety and tolerability of the treatment” value ([2]; patients, intradiscal 45-180 mg) was “safe and tolerable”.
